This is an account of results in patent US10479780B2, “Aminopyrazole derivatives” (Chugai Seiyaku Kabushiki Kaisha, priority 2015, dated 2019).

Where two headings read alike, the source gives them in different places.

Holding throughout (format): biochemical
The target of experiment [1] is T1, human Src enzyme (Homo sapiens, UniProt P12931).
T1 construct: purchased Carna Biosciences, Inc. 08-173
Nature of the experiment: Src enzyme inhibitory activity (time-resolved fluorometry, biotinylated peptide phosphorylation). Conditions: read-out: SRC_IC50. A digest of the protocol:
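Compounds were tested for blocking tyrosine phosphorylation of a biotinylated peptide substrate by recombinant human Src. Phosphorylated product was quantified by time-resolved fluorometry using europium cryptate and XL665 conjugates, and IC50 was calculated against the compound-free control.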

Experiment [2] deals with T2, human Yes1 enzyme (Homo sapiens, UniProt P07947).
T2 construct: made in house
T2 sequence (P07947 whole entry): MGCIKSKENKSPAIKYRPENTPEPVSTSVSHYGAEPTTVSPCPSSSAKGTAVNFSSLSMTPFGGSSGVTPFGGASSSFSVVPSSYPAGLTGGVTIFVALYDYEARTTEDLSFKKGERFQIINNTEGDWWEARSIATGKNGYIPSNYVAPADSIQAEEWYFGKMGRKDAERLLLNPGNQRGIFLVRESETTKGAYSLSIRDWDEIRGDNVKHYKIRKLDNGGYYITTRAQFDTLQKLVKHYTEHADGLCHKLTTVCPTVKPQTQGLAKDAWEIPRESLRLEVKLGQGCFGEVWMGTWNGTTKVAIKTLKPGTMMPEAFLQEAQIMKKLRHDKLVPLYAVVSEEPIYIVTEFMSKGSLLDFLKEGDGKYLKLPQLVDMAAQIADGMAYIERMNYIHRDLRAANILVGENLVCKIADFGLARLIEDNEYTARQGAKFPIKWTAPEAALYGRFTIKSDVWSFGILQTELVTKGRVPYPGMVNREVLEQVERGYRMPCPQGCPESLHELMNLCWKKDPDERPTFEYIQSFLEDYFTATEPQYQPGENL
Nature of the experiment: Yes1 enzyme inhibitory activity (time-resolved fluorometry, biotinylated peptide phosphorylation). Conditions: read-out: YES_IC50. A digest of the protocol:
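Inhibition was expressed against a compound-free control to give IC50, using TR-FRET read-out (Eu-cryptate anti-pTyr antibody, streptavidin-XL665).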

Experiment [3] has as its target T3, human Lck enzyme (Homo sapiens, UniProt P06239).
T3 construct: purchased Carna Biosciences, Inc. 08-170
Nature of the experiment: Lck enzyme inhibitory activity (time-resolved fluorometry, biotinylated peptide phosphorylation). Conditions: read-out: LCK_IC50. A digest of the protocol: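 Readout pairs a europium cryptate-labelled anti-phosphotyrosine antibody with XL665-streptavidin, measured by time-resolved fluorescence. IC50 derived from percent inhibition against untreated controls.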

The mark [4] stands for this setting: biotinylated peptide phosphorylation.

T3 sequence (P06239 whole entry): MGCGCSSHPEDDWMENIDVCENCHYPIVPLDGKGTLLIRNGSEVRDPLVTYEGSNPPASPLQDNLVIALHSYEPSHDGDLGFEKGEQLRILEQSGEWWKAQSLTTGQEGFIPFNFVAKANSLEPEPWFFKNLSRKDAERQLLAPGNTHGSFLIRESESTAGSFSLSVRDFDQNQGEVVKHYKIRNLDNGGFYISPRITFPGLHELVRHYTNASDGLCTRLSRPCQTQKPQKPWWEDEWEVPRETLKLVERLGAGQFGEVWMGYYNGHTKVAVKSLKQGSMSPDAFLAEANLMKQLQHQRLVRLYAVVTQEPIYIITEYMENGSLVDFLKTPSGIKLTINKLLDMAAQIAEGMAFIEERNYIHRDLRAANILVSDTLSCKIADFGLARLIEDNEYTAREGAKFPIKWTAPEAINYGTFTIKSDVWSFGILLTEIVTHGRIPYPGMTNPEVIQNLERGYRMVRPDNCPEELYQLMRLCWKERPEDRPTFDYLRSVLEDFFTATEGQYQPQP
T1 sequence (P12931 whole entry): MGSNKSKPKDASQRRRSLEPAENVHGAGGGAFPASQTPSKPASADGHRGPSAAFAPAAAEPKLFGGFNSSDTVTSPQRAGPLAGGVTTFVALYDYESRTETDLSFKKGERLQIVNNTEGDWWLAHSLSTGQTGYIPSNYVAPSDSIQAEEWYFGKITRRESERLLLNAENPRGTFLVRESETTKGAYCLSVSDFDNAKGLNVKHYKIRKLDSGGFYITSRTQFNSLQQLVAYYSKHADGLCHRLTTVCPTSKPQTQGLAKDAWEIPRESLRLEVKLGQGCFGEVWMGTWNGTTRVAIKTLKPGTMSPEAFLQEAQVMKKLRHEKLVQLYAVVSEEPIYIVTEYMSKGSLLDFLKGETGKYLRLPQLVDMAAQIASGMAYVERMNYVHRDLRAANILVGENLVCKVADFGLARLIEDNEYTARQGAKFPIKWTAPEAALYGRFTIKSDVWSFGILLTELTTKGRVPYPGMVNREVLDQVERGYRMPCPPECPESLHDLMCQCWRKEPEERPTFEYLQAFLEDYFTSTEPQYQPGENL

Turning to `Cc1cc(Oc2ccccc2F)ccc1-n1ncc(C(=O)c2cc3cc(F)c(N4C(=O)NC5(CCOCC5)C4=O)cc3[nH]2)c1N` [Example 5-1-437, 3-[2-[5-amino-1-[4-(2-fluorophenoxy)-2-methylphenyl]pyrazole-4-carbonyl]-5-fluoro-1H-indol-6-yl]-8-oxa-1,3-diazaspiro[4.5]decane-2,4-dione], the IC50 stood at 40 nM in experiment [1] (setting [4]), 0.79 nM in experiment [2] (setting [4]) and 7.8 nM in experiment [3] (setting [4]).

On to `Cc1cc2cc(C(=O)c3cnn(-c4ccc(Oc5ccccc5F)cc4C)c3N)[nH]c2cc1C1CCN(S(C)(=O)=O)CC1` [Example 5-1-086, [5-amino-1-[4-(2-fluorophenoxy)-2-methylphenyl]pyrazol-4-yl]-[5-methyl-6-(1-methylsulfonylpiperidin-4-yl)-1H-indol-2-yl] methanone], for which the IC50 in experiment [1] was found to be 8.5 nM; in experiment [2], 1.4 nM; in experiment [3] it was 2.8 nM.

For `Cc1cc(Oc2ccccc2F)ncc1-n1ncc(C(=O)c2cc3cc(NS(C)(=O)=O)c(OCCN4CCOCC4)cc3[nH]2)c1N` [Example 4-2-129], the IC50 in experiment [1] (setting [4]) amounted to 3.2 nM; in experiment [2] (setting [4]), 0.59 nM; in experiment [3] (setting [4]), 1.4 nM.

Consider `COc1cncc(S(=O)(=O)Nc2cc3[nH]c(C(=O)c4cnn(-c5cnc(Oc6ccccc6F)cc5C)c4N)cc3cc2C)c1` [Example 5-1-484, N-[2-[5-amino-1-[6-(2-fluorophenoxy)-4-methylpyridin-3-yl]pyrazole-4-carbonyl]-5-methyl-1H-indol-6-yl]-5-methoxypyridine-3-sulfonamide], for which the IC50 in experiment [1] (setting [4]) was found to be 570 nM; in experiment [2] (setting [4]), 6.9 nM; in experiment [3] (setting [4]), 140 nM.

For the compound `Cc1cc(-n2ncc(C(=O)c3cc4cc(OC5CCN(C(C)C)CC5)c(Cl)cc4[nH]3)c2N)ccc1Oc1cccc(F)c1` [Example 5-1-209, [5-amino-1-[4-(3-fluorophenoxy)-3-methylphenyl]pyrazol-4-yl]-[6-chloro-5-(1-propan-2-ylpiperidin-4-yl)oxy-1H-indol-2-yl] methanone], the values for the IC50 in experiment [1], in experiment [2] and in experiment [3] were 420 nM, 4.4 nM and 98 nM, respectively.

For `Cc1cc2cc(C(=O)c3cnn(-c4cnc(Oc5cccc(Cl)c5)cc4C)c3N)[nH]c2cc1NS(=O)(=O)N1CCOCC1` [Example 4-2-111, N-[2-[5-amino-1-[6-(3-chlorophenoxy)-4-methylpyridin-3-yl]pyrazole-4-carbonyl]-5-methyl-1H-indol-6-yl]morpholine-4-sulfonamide], the IC50 in experiment [1] (setting [4]) stood at 690 nM; in experiment [2] (setting [4]) it was 41 nM; in experiment [3] (setting [4]) it was 320 nM.

Consider `Cc1cc(Oc2cccc(Cl)c2)cc(F)c1-n1ncc(C(=O)c2cc3cc(NS(C)(=O)=O)c(F)cc3[nH]2)c1N` [Example 5-1-048, N-[2-[5-amino-1-[4-(3-chlorophenoxy)-2-fluoro-6-methylphenyl]pyrazole-4-carbonyl]-6-fluoro-1H-indol-5-yl]methanesulfonamide], for which the figures for the IC50 in experiment [1], in experiment [2] and in experiment [3] were 110 nM, 1.6 nM and 6.4 nM, respectively.

On to `Cc1cc(Oc2c(F)cccc2F)ncc1-n1ncc(C(=O)c2cc3cc(OC4CCN(C5COC5)CC4)c(Br)cc3[nH]2)c1N` [Example 5-1-222, [5-amino-1-[6-(2,6-difluorophenoxy)-4-methylpyridin-3-yl]pyrazol-4-yl]-[6-bromo-5-[1-(oxetan-3-yl)plperidin-4-yl]oxy-1H-indol-2-yl] methanone], for which the IC50 in experiment [1] was 4.7 nM; in experiment [2] it was 1.3 nM; in experiment [3], 7.5 nM.

Turning to `Cc1cc(Oc2ccccc2F)ccc1-n1ncc(C(=O)c2cc3cc(F)c(NS(=O)(=O)c4cccc(F)c4)cc3[nH]2)c1N` [Example 5-1-552, N-[2-[5-amino-1-[4-(2-fluorophenoxy)-2-methylphenyl]pyrazole-4-carbonyl]-5-fluoro-1H-indol-6-yl]-3-fluorobenzenesulfonamide], the IC50 in experiment [1] (setting [4]) was found to be 830 nM; in experiment [2] (setting [4]), 5.4 nM; in experiment [3] (setting [4]), 130 nM.

Consider `Cc1cc(Oc2ccccc2F)ncc1-n1ncc(C(=O)c2cc3cc(F)c(NS(=O)(=O)c4cncc(F)c4)cc3[nH]2)c1N` [Example 5-1-549, N-[2-[5-amino-1-[6-(2-fluorophenoxy)-4-methylpyridin-3-yl]pyrazole-4-carbonyl]-5-fluoro-1H-indol-6-yl]-5-fluoropyridine-3-sulfonamide], for which the IC50 in experiment [1] (setting [4]) came out at 740 nM; in experiment [2] (setting [4]), 7.7 nM; in experiment [3] (setting [4]), 80 nM.

As to `Cc1cc(-n2ncc(C(=O)c3cc4cc(OC(F)F)c(N5CCC(N6CCOCC6)CC5)cc4[nH]3)c2N)ccc1Oc1ccccc1F` [Example 5-1-181, [5-amino-1-[4-(2-fluorophenoxy)-3-methylphenyl]pyrazol-4-yl]-[5-(difluoromethoxy)-6-(4-morpholin-4-ylpiperidin-1-yl)-1H-indol-2-yl]methanone], the IC50 in experiment [1] is 390 nM; in experiment [2], 1.4 nM; in experiment [3], 41 nM.

For the compound `Cc1cc(Oc2ccccc2F)ncc1-n1ncc(C(=O)c2cc3cc(OCC(F)F)c(C4CCN(S(=O)(=O)C5CC5)CC4)cc3[nH]2)c1N` [Example 4-17-022, [5-amino-1-[6-(2-fluorophenoxy)-4-methylpyridin-3-yl]pyrazol-4-yl]-[6-(1-cyclopropylsulfonylpiperidin-4-yl)-5-(2,2-difluoroethoxy)-1H-indol-2-yl]methanone], the IC50 was 14 nM in experiment [1] (setting [4]), 1.3 nM in experiment [2] (setting [4]) and 8 nM in experiment [3] (setting [4]).

On to `Cc1cc2cc(C(=O)c3cnn(-c4cnc(Oc5ccccc5F)cc4C)c3N)[nH]c2cc1NS(=O)(=O)c1cc(F)cc(F)c1` [Example 5-1-460, N-[2-[5-amino-1-[6-(2-fluorophenoxy)-4-methylpyridin-3-yl]pyrazole-4-carbonyl]-5-methyl-1H-indol-6-yl]-3,5-difluorobenzenesulfonamide], for which the IC50 was 770 nM in experiment [1] (setting [4]), 4.5 nM in experiment [2] (setting [4]) and 200 nM in experiment [3] (setting [4]).

On to `Cc1cc(Oc2ccccc2F)ncc1-n1ncc(C(=O)c2cc3cc(F)c(NS(=O)(=O)NC(C)C)cc3[nH]2)c1N` [Example 5-1-021, [5-amino-1-[6-(2-fluorophenoxy)-4-methylpyridin-3-yl]pyrazol-4-yl]-[5-fluoro-6-(propan-2-ylsulfamoylamino)-1H-indol-2-yl] methanone], for which the IC50 in experiment [1] was determined as 310 nM; in experiment [2], 9.8 nM; in experiment [3] it was 72 nM.

`COc1ccnc(S(=O)(=O)Nc2cc3[nH]c(C(=O)c4cnn(-c5cnc(Oc6c(F)cccc6F)cc5C)c4N)cc3cc2OCC(F)F)c1` [Example 5-1-569, N-[2-[5-amino-1-[6-(2,6-difluorophenoxy)-4-methylpyridin-3-yl]pyrazole-4-carbonyl]-5-(2,2-difluoroethoxy)-1H-indol-6-yl]-4-methoxypyridine-2-sulfonamide]: the IC50 in experiment [1] (setting [4]) was found to be 230 nM; in experiment [2] (setting [4]), 4.1 nM; in experiment [3] (setting [4]) it was 22 nM.

Consider `Cc1cc(Oc2ccccc2F)ccc1-n1ncc(C(=O)c2cc3cc(OCC(F)F)c(C4CCN(S(=O)(=O)C5CC5)CC4)cc3[nH]2)c1N` [Example 4-17-016, [5-amino-1-[4-(2-fluorophenoxy)-2-methylphenyl]pyrazol-4-yl]-[6-(1-cyclopropylsulfonylpiperidin-4-yl)-5-(2,2-difluoroethoxy)-1H-indol-2-yl]methanone], for which the IC50 is 15 nM in experiment [1] (setting [4]), 6.4 nM in experiment [2] (setting [4]) and 12 nM in experiment [3] (setting [4]).

As to `Cc1cc(Oc2ccccc2F)ncc1-n1ncc(C(=O)c2cc3cc(OCC(F)F)c(NS(=O)(=O)N4CCOCC4)cc3[nH]2)c1N` [Example 4-22-006, N-[2-[5-amino-1-[6-(2-fluorophenoxy)-4-methylpyridin-3-yl]pyrazole-4-carbonyl]-5-(2,2-difluoroethoxy)-1H-indol-6-yl]morpholine-4-sulfonamide], the IC50 in experiment [1] (setting [4]) was 130 nM; in experiment [2] (setting [4]) it was 1.9 nM; in experiment [3] (setting [4]) it was 51 nM.

With `Cc1cc2cc(C(=O)c3cnn(-c4ccc(Oc5ccccc5F)cc4C)c3N)[nH]c2cc1N1C(=O)N[C@@H](CO)C1=O` [Example 5-1-456, (5S)-3-[2-[5-amino-1-[4-(2-fluorophenoxy)-2-methylphenyl]pyrazole-4-carbonyl]-5-methyl-1H-indol-6-yl]-5-(hydroxymethyl)imidazolidine-2,4-dione], the IC50 is 8.8 nM in experiment [1] (setting [4]), 0.4 nM in experiment [2] (setting [4]) and 2.2 nM in experiment [3] (setting [4]).

On to `Cc1cc(Oc2ccccc2F)ccc1-n1ncc(C(=O)c2cc3cc(OCC(F)F)c(N4CCCC4=O)cc3[nH]2)c1N` [Example 4-21-002, 1-[2-[5-amino-1-[4-(2-fluorophenoxy)-2-methylphenyl]pyrazole-4-carbonyl]-5-(2,2-difluoroethoxy)-1H-indol-6-yl]pyrrolidin-2-one], for which the IC50 in experiment [1] (setting [4]) worked out at 5.4 nM; in experiment [2] (setting [4]), 0.89 nM; in experiment [3] (setting [4]) it was 2.8 nM.

Consider `Cc1cc2cc(C(=O)c3cnn(-c4ccc(Oc5ccccc5F)cc4C)c3N)[nH]c2cc1N1C(=O)[C@@H]2C[C@H](NC(=O)OCC3c4ccccc4-c4ccccc43)CN2C1=O` [Example 5-1-268, 9H-fluoren-9-ylmethyl N-[(6S,7aS)-2-[2-[5-amino-1-[4-(2-fluorophenoxy)-2-methylphenyl]pyrazole-4-carbonyl]-5-methyl-1H-indol-6-yl]-1,3-dioxo-5,6,7,7a-tetrahydropyrrolo[1,2-c]imidazol-6-yl]carbamate], for which the IC50 was 120 nM in experiment [1], 12 nM in experiment [2] and 31 nM in experiment [3].
